Source: paper PMC11574021, “CEP192 localises mitotic Aurora-A activity by priming its interaction with TPX2” (The EMBO Journal, 2024)

Test system: LATS2-pS83 in U251 cells
Assay: Immunofluorescence, LATS2-pS83 spindle pole signal intensity, U251
Format: cell-based, Homo sapiens
Conditions: for centrosomal LATS2-pS83 signal: U251, siRNA 48 h or Aurora-A inhibitor 30 min (250 nM), immunofluorescence
Procedure: As noted in the figures, the following drugs were incubated with cells for 30 min at 37 °C: Aurora-B-i ZM447439 2 µM [10 mM], PLK1-I BI2536 1 µM [10 mM] and Aurora-A-i MLN8237 [5 mM] was used at 250 and 500 nM in U251 and RPE1 cells, respectively. Drugs were resuspended in DMSO to the stock concentrations indicated in square brackets. BI2536 (HY-50698), MLN8237 (HY-10971) and ZM447439 (HY-10128) were all purchased from MedChemExpress. For western blotting, a 20-min pre-treatment with proteasome inhibitor (20 µM MG-132, MerckMillipore, 47490 [20 mM]) was required prior to the addition of DMSO control or kinase inhibitors. This prevented mitotic exit as a consequence of checkpoint override following Aurora-A and Aurora-B inhibitor addition.
siRNA depletion was carried out by reverse transfection using oligofectamine (Thermo Scientific, 12252011) and lipofectamine RNAiMax (Thermo Scientific, 13778075), according to the manufacturer’s instructions, for U251 and RPE1 cells, respectively. For immunofluorescence, 1 × 10^5 cells were seeded in six-well plates and simultaneously transfected with 60 pmol siRNA duplex and 3 µl transfection reagent diluted in 200 µl Opti-MEM serum-free medium. Growth medium was added to a final volume of 2 ml. For western blotting, 1 × 10^6 cells were seeded in 10 cm dishes and transfected with 300 pmol siRNA duplex and 15 µl transfection reagent diluted in 1000 µl Opti-MEM. Growth medium was added to a final volume of 10 ml. Cells were incubated with siRNA for 48 h prior to fixation or harvesting. As a negative control (siControl) Silencer select negative control No.1 siRNA was transfected as above. For TACC3 depletion, where two siRNA duplexes were used, 40 pmol of each was transfected per well.
For siRNA depletion, 1 × 10^5 cells were seeded in six-well plates and transfected as described above for 48 h prior to fixation. For all other experiments, 2.5 × 10^5 cells were seeded in six-well plates and grown for 24 h before fixation. All cells were grown on 12 mm diameter glass coverslips (VWR, 631–1577). Cells in Fig. EV4A were fixed using 4% (wt/v) paraformaldehyde (PFA) in PBS for 12 min, followed by 10 min quenching in 50 mM NH4Cl in PBS and 5 min of permeabilization with 0.2% (v/v) Triton X-100 in PBS, all at room temperature. For centriole staining in Fig. EV4E, cells were fixed in pre-chilled methanol for 10 min at −20 °C, incubated in PBS for 10 min and then 5 min in 0.5% Triton-X-100, 0.5% Tween, 0.05% SDS in PBS (v/v). To observe centromere and kinetochore staining in Fig. 7C and Appendix Fig. S8A, cells were fixed with PTEMF buffer (20 mM PIPES pH 6.8, 0.2% (v/v) Triton X-100, 10 mM EGTA, 1 mM MgCl2, 4% PFA (wt/v) in PBS) for 12 min at room temperature. […]

| Molecule | centrosomal LATS2-pS83 signal | reduction of p-LATS2 (pS83) intensity (U251, Aurora-A inhibition 30 min, authors' response to referees) [%] |
| --- | --- | --- |
| 5′-CAAACAACUUGGAAAUCGAtt-3′ [siCEP192] | reducing LATS2 phosphorylation |  |
| 5′-CGGUAGUGAUAAAAGCUCAtt-3′ [siTPX2] | reducing LATS2 phosphorylation |  |
| COc1cc(Nc2ncc3c(n2)-c2ccc(Cl)cc2C(c2c(F)cccc2OC)=NC3)ccc1C(=O)O [Alisertib] | obliterated | > 80 |
